# ChEMBL document CHEMBL1649312, “Absence of association between piperaquine in vitro responses and polymorphisms in the pfcrt, pfmdr1, pfmrp, and pfnhe genes in Plasmodium falciparum” (Antimicrob Agents Chemother, 2010)
# How the values were obtained:
# Type in all cases: functional, organism-based
# [1] = system: Plasmodium falciparum; assay: Antimalarial activity against Plasmodium falciparum IMT 10354 assessed as inhibition of [3H] incorporation after 48 hrs by scintillation counter
# [2] = system: Plasmodium falciparum; assay: Antimalarial activity against Plasmodium falciparum IMT 16332 assessed as inhibition of [3H] incorporation after 48 hrs by scintillation counter
# [3] = system: Plasmodium falciparum; assay: Antimalarial activity against Plasmodium falciparum IMT 8425 assessed as inhibition of [3H] incorporation after 48 hrs by scintillation counter
# [4] = system: Plasmodium falciparum; assay: Antimalarial activity against Plasmodium falciparum IMT K4 assessed as inhibition of [3H] incorporation after 48 hrs by scintillation counter
# [5] = system: Plasmodium falciparum; assay: Antimalarial activity against Plasmodium falciparum IMT K14 assessed as inhibition of [3H] incorporation after 48 hrs by scintillation counter
# [6] = system: Plasmodium falciparum; assay: Antimalarial activity against Plasmodium falciparum IMT A4 assessed as inhibition of [3H] incorporation after 48 hrs by scintillation counter
# [7] = system: Plasmodium falciparum; assay: Antimalarial activity against Plasmodium falciparum FCM29 assessed as inhibition of [3H] incorporation after 48 hrs by scintillation counter
# [8] = system: Plasmodium falciparum; assay: Antimalarial activity against Plasmodium falciparum IMT 9881 assessed as inhibition of [3H] incorporation after 48 hrs by scintillation counter
# [9] = system: Plasmodium falciparum; assay: Antimalarial activity against Plasmodium falciparum IMT Vol assessed as inhibition of [3H] incorporation after 48 hrs by scintillation counter
# [10] = system: Plasmodium falciparum; assay: Antimalarial activity against Plasmodium falciparum 106/1 harboring Ppcrt M74I, N75E, K76T, A220S, Q271E, N326S and I356T mutant gene, Pmdr1 N86Y mutant gene and Pfmrp H191Y and S437A mutant gene assessed as incorporation of [3]H hypoxanthine after 48 hrs by scintillation counter; details: 106/1, 48 h
# [11] = system: Plasmodium falciparum; assay: (§1) Antimalarial activity against Plasmodium falciparum 3D7 harboring Ppcrt I371R mutant gene and Pfnhe-1 ms4760 microsatellite mutant assessed as incorporation of [3]H hypoxanthine after 48 hrs by scintillation counter; details: 3D7, 48 h
# [12] = system: Plasmodium falciparum; assay: Antimalarial activity against Plasmodium falciparum IMT K2 assessed as inhibition of [3H] incorporation after 48 hrs by scintillation counter
# [13] = system: Plasmodium falciparum; assay: as §1, with “IMT Guy” for “3D7”, “Ppcrt K76T, A220S, N326D and” for “Ppcrt”, “I371R mutant gene, Pmdr1 […], 1042D and D1246Y, mutant gene and Pfmrp H191Y and S437A” for “I371R”
# [14] = system: Plasmodium falciparum; assay: Antimalarial activity against Plasmodium falciparum IMT 8425 harboring Ppcrt I371R mutant gene and Pfnhe-1 ms4760 microsatellite mutant assessed as incorporation of [3]H hypoxanthine after 48 hrs by scintillation counter; details: IMT 8425, 48 h
# [15] = system: Plasmodium falciparum; assay: Antimalarial activity against Plasmodium falciparum 3D7 assessed as inhibition of [3H] incorporation after 48 hrs by scintillation counter
# [16] = system: Plasmodium falciparum; assay: Antimalarial activity against Plasmodium falciparum W2 harboring Ppcrt M74I, N75E, K76T, A220S, Q271E, N326S and I356T mutant gene, Pmdr1 N86Y mutant gene and Pfmrp H191Y and S437A mutant gene assessed as incorporation of [3]H hypoxanthine after 48 hrs by scintillation counter; details: W2, 48 h
# [17] = system: Plasmodium falciparum; assay: Antimalarial activity against Plasmodium falciparum IMT 9881 harboring Ppcrt I371R mutant gene assessed as incorporation of [3]H hypoxanthine after 48 hrs by scintillation counter; details: IMT 9881, 48 h
# [18] = system: Plasmodium falciparum; assay: Antimalarial activity against Plasmodium falciparum IMT 10354 harboring Ppcrt M74I, N75E, K76T, A220S mutant gene, Pmdr1 D1246Y mutant gene assessed as incorporation of [3]H hypoxanthine after 48 hrs by scintillation counter; details: IMT 10354, 48 h
# [19] = system: Plasmodium falciparum; assay: Antimalarial activity against Plasmodium falciparum PA harboring Ppcrt M74I, N75E, K76T, A220S, Q271E, N326S and I356T mutant gene, Pmdr1 N86Y mutant gene and Pfmrp H191Y and S437A mutant gene assessed as incorporation of [3]H hypoxanthine after 48 hrs by scintillation counter
# [20] = system: Plasmodium falciparum; assay: Antimalarial activity against Plasmodium falciparum IMT 10336 harboring Pfcrt Q271E mutant gene and Ppcrt I371R mutant gene assessed as incorporation of [3]H hypoxanthine after 48 hrs by scintillation counter; details: IMT 10336, 48 h
# [21] = system: Plasmodium falciparum; assay: Antimalarial activity against Plasmodium falciparum IMT L1 assessed as inhibition of [3H] incorporation after 48 hrs by scintillation counter
# [22] = system: Plasmodium falciparum; assay: Antimalarial activity against Plasmodium falciparum W2 assessed as inhibition of [3H] incorporation after 48 hrs by scintillation counter
# [23] = system: Plasmodium falciparum; assay: Antimalarial activity against Plasmodium falciparum IMT 31 assessed as inhibition of [3H] incorporation after 48 hrs by scintillation counter
# [24] = system: Plasmodium falciparum; assay: Antimalarial activity against Plasmodium falciparum D6 assessed as inhibition of [3H] incorporation after 48 hrs by scintillation counter
# [25] = system: Plasmodium falciparum; assay: Antimalarial activity against Plasmodium falciparum D6 harboring Ppcrt I371R mutant gene assessed as incorporation of [3]H hypoxanthine after 48 hrs by scintillation counter; details: D6, 48 h
# [26] = system: Plasmodium falciparum; assay: Antimalarial activity against Plasmodium falciparum FCR3 harboring Ppcrt M74I, N75E, K76T, A220S, Q271E, N326S and I356T mutant gene, Pmdr1 N86Y mutant gene and Pfmrp H191Y and S437A mutant gene assessed as incorporation of [3]H hypoxanthine after 48 hrs by scintillation counter; details: FCR3, 48 h
# [27] = system: Plasmodium falciparum; assay: Antimalarial activity against Plasmodium falciparum IMT L1 harboring Ppcrt M74I, N75E, K76T, A220S, Q271E mutant gene, Pmdr1 N86Y mutant gene and Pfmrp H191Y and S437A mutant gene assessed as incorporation of [3]H hypoxanthine after 48 hrs by scintillation counter; details: IMT L1, 48 h
# [28] = system: Plasmodium falciparum; assay: Antimalarial activity against Plasmodium falciparum FCR3 assessed as inhibition of [3H] incorporation after 48 hrs by scintillation counter
# [29] = system: Plasmodium falciparum; assay: Antimalarial activity against Plasmodium falciparum PA assessed as inhibition of [3H] incorporation after 48 hrs by scintillation counter
# [30] = system: Plasmodium falciparum; assay: Antimalarial activity against Plasmodium falciparum IMT 16332 harboring Ppcrt M74I, N75E, K76T, A220S, Q271E mutant gene, Pmdr1 N86Y mutant gene assessed as incorporation of [3]H hypoxanthine after 48 hrs by scintillation counter; details: IMT 16332, 48 h
# [31] = system: Plasmodium falciparum; assay: Antimalarial activity against Plasmodium falciparum IMT 10500 harboring Pfcrt Q271E mutant gene and Ppcrt I371R mutant gene and Pfnhe-1 ms4760 microsatellite mutant assessed as incorporation of [3]H hypoxanthine after 48 hrs by scintillation counter; details: IMT 10500, 48 h
# [32] = system: Plasmodium falciparum; assay: Antimalarial activity against Plasmodium falciparum IMT Vol harboring Ppcrt M74I, N75E, K76T, A220S, Q271E, N326S mutant gene, Pmdr1 N86Y mutant gene and Pfmrp H191Y and S437A mutant gene assessed as incorporation of [3]H hypoxanthine after 48 hrs by scintillation counter
# [33] = system: Plasmodium falciparum; assay: Antimalarial activity against Plasmodium falciparum 106/1 assessed as inhibition of [3H] incorporation after 48 hrs by scintillation counter
# [34] = system: Plasmodium falciparum; assay: Antimalarial activity against Plasmodium falciparum IMT Bres assessed as inhibition of [3H] incorporation after 48 hrs by scintillation counter
# [35] = system: Plasmodium falciparum; assay: Antimalarial activity against Plasmodium falciparum IMT K4 harboring Ppcrt M74I, N75E, K76T, A220S, Q271E, N326S mutant gene, Pmdr1 S1034C, N1042D mutant gene and Pfmrp H191Y and S437A mutant gene assessed as incorporation of [3]H hypoxanthine after 48 hrs by scintillation counter; details: IMT K4, 48 h
# [36] = system: Plasmodium falciparum; assay: Antimalarial activity against Plasmodium falciparum IMT Guy assessed as inhibition of [3H] incorporation after 48 hrs by scintillation counter
# [37] = system: Plasmodium falciparum; assay: Antimalarial activity against Plasmodium falciparum IMT Bres harboring Ppcrt M74I, N75E, K76T, A220S, Q271E, N326S and I356T mutant gene, Pmdr1 N86Y mutant gene and Pfmrp H191Y and S437A mutant gene assessed as incorporation of [3]H hypoxanthine after 48 hrs by scintillation counter
# [38] = system: Plasmodium falciparum; assay: Antimalarial activity against Plasmodium falciparum IMT K2 harboring Ppcrt M74I, N75E, K76T, A220S, Q271E, N326S mutant gene, Pmdr1 S1034C, N1042D mutant gene and Pfmrp H191Y and S437A mutant gene assessed as incorporation of [3]H hypoxanthine after 48 hrs by scintillation counter; details: IMT K2, 48 h
# [39] = system: Plasmodium falciparum; assay: Antimalarial activity against Plasmodium falciparum IMT K14 harboring Ppcrt M74I, N75E, K76T, A220S, Q271E, N326S mutant gene, Pmdr1 Y184F, S1034C, N1042D, D1246Y mutant gene and Pfmrp H191Y and S437A mutant gene assessed as incorporation of [3]H hypoxanthine after 48 hrs by scintillation counter; details: IMT K14, 48 h
# [40] = system: Plasmodium falciparum; assay: Antimalarial activity against Plasmodium falciparum HB3 harboring Ppcrt I371R mutant gene and Pfmdr1 Y184F mutant gene assessed as incorporation of [3]H hypoxanthine after 48 hrs by scintillation counter; details: HB3, 48 h
# [41] = system: Plasmodium falciparum; assay: Antimalarial activity against Plasmodium falciparum IMT 10500 assessed as inhibition of [3H] incorporation after 48 hrs by scintillation counter
# [42] = system: Plasmodium falciparum; assay: Antimalarial activity against Plasmodium falciparum IMT A4 harboring Ppcrt M74I, N75E, K76T, […], Q271E, N326S and I356T mutant gene, Pmdr1 Y184F, N1042D, D1246Y mutant gene assessed as incorporation of [3]H hypoxanthine after 48 hrs by scintillation counter; details: IMT A4, 48 h
# [43] = system: Plasmodium falciparum; assay: Antimalarial activity against Plasmodium falciparum HB3 assessed as inhibition of [3H] incorporation after 48 hrs by scintillation counter
# [44] = system: Plasmodium falciparum; assay: Antimalarial activity against Plasmodium falciparum IMT 31 harboring Ppcrt I371R mutant gene assessed as incorporation of [3]H hypoxanthine after 48 hrs by scintillation counter; details: IMT 31, 48 h
# [45] = system: Plasmodium falciparum; assay: Antimalarial activity against Plasmodium falciparum FCM29 harboring Ppcrt M74I, N75E, K76T, A220S, Q271E, N326S and I356T mutant gene, Pmdr1 N86Y mutant gene and Pfmrp H191Y and S437A mutant gene assessed as incorporation of [3]H hypoxanthine after 48 hrs by scintillation counter; details: FCM29, 48 h
# [46] = system: Plasmodium falciparum; assay: Antimalarial activity against Plasmodium falciparum IMT 10336 assessed as inhibition of [3H] incorporation after 48 hrs by scintillation counter
structure (smiles),measurement,setting,value
C[C@H]1c2cccc(O)c2C(=O)C2=C(O)[C@]3(O)C(=O)C(C(N)=O)=C(O)[C@@H](N(C)C)[C@@H]3[C@@H](O)[C@@H]21 [DOXYCYCLINE],IC50,[1],4600 nM
same,IC50,[2],13700 nM
same,IC50,[3],10900 nM
same,IC50,[4],10200 nM
same,IC50,[5],11500 nM
same,IC50,[6],9200 nM
same,IC50,[7],11600 nM
same,IC50,[8],8700 nM
same,IC50,[9],9100 nM
Clc1ccc2c(N3CCN(CCCN4CCN(c5ccnc6cc(Cl)ccc56)CC4)CC3)ccnc2c1 [PIPERAQUINE],IC50,[10],69 nM
same,IC50,[11],58 nM
same,IC50,[12],84 nM
same,IC50,[13],63 nM
same,IC50,[14],44 nM
same,IC50,[15],58 nM
same,IC50,[16],52 nM
same,IC50,[17],56 nM
same,IC50,[1],29 nM
same,IC50,[18],29 nM
same,IC50,[2],48 nM
same,IC50,[19],80 nM
same,IC50,[20],74 nM
same,IC50,[21],47 nM
same,IC50,[22],52 nM
same,IC50,[23],48 nM
same,IC50,[24],58 nM
same,IC50,[25],58 nM
same,IC50,[3],44 nM
same,IC50,[4],64 nM
same,IC50,[26],53 nM
same,IC50,[27],47 nM
same,IC50,[28],53 nM
same,IC50,[29],80 nM
same,IC50,[30],48 nM
same,IC50,[31],81 nM
same,IC50,[32],37 nM
same,IC50,[33],69 nM
same,IC50,[34],46 nM
same,IC50,[35],64 nM
same,IC50,[5],61 nM
same,IC50,[36],63 nM
same,IC50,[6],75 nM
same,IC50,[37],46 nM
same,IC50,[38],84 nM
same,IC50,[39],61 nM
same,IC50,[7],98 nM
same,IC50,[40],55 nM
same,IC50,[41],81 nM
same,IC50,[42],75 nM
same,IC50,[43],55 nM
same,IC50,[44],48 nM
same,IC50,[45],98 nM
same,IC50,[46],74 nM
